Key:
Type in all cases: cell-based
Serratia marcescens = assay: MIC against Gram-negative bacteria: Serratia marcescens; details: for MIC S. marcescens / MIC against S. marcescens: 5×10^5 CFU/mL
In short: (§1)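 First, colonies from LB agar were grown in LB at 37° C, 185 rpm, to McFarland turbidity 0.5, then centrifuged and resuspended in fresh LB. Next, wells received 5×10^5 CFU/mL bacteria plus two-fold serially diluted EGF domain protein (triplicate). Finally, plates were shaken at 37° C and the no-growth concentration taken as MIC.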

Proteus vulgaris = assay: MIC against Gram-negative bacteria: Proteus vulgaris; details: for MIC P. vulgaris / MIC against P. vulgaris: 5×10^5 CFU/mL
In short: as §1

Pseudomonas aeruginosa = assay: MIC against Gram-negative bacteria: Pseudomonas aeruginosa; details: for MIC P. aeruginosa / MIC against P. aeruginosa: 5×10^5 CFU/mL
In short: as §1

Enterobacter cloacae = assay: MIC against Gram-negative bacteria: Enterobacter cloacae; details: for MIC E. cloacae / MIC against E. cloacae: 5×10^5 CFU/mL
In short: as §1

E. coli BL21 = assay: MIC against Gram-negative bacteria: E. coli BL21; details: for MIC E. coli BL21 / MIC against E. coli BL21: 5×10^5 CFU/mL
In short: as §1

Aeromonas hydrophila = assay: MIC against Gram-negative bacteria: Aeromonas hydrophila; details: for MIC A. hydrophila / MIC against A. hydrophila: 5×10^5 CFU/mL
In short: as §1

Klebsiella pneumonia = assay: MIC against Gram-negative bacteria: Klebsiella pneumonia; details: for MIC K. pneumonia / MIC against K. pneumonia: 5×10^5 CFU/mL
In short: as §1

Moraxella catarrhalis = assay: MIC against Gram-negative bacteria: Moraxella catarrhalis; details: for MIC M. catarrhalis / MIC against M. catarrhalis: 5×10^5 CFU/mL
In short: as §1

Citrobacter diversus = assay: MIC against Gram-negative bacteria: Citrobacter diversus; details: for MIC C. diversus / MIC against C. diversus: 5×10^5 CFU/mL
In short: as §1

Proteus mirabilis = assay: MIC against Gram-negative bacteria: Proteus mirabilis; details: for MIC P. mirabilis / MIC against P. mirabilis: 5×10^5 CFU/mL
In short: as §1

E. coli DH5α = assay: Antibacterial activity: MIC and growth curve against E. coli DH5α in 96-well plate; details: minimal inhibitory concentration against E. coli DH5α; 96-well plate, 5×10^5 CFU/mL, 37° C., judged after 8 h
In short: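 Log-phase DH5α (OD600 about 0.5, 37° C, 185 rpm in LB) was pelleted, resuspended in fresh LB and seeded at 5×10^5 CFU/mL with recombinant protein at 50, 25 and 12.5 μg/mL (two-fold series), in triplicate. Plates were shaken at 175 rpm, 37° C, and OD600 was read every 30 min. MIC was the lowest concentration with no growth.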

[1] = 10 h cultivation at 37° C., two-fold serial dilution
[2] = E. coli BL21, 10 h cultivation at 37° C.

PRT1101 (MKDPCFSNPCQGSATCVNTPGERSFLCKCPPGYSGTICE; listed as Homo sapiens)
MIC S. marcescens (Serratia marcescens; [1]): 12.5 µg/mL | MIC P. vulgaris (Proteus vulgaris; [1]): 25 µg/mL | MIC P. aeruginosa (Pseudomonas aeruginosa; [1]): 25 µg/mL | MIC E. cloacae (Enterobacter cloacae; [1]): 25 µg/mL | MIC E. coli BL21 (E. coli BL21; [1]): 50 µg/mL | MIC A. hydrophila (Aeromonas hydrophila; [1]): 50 µg/mL | MIC K. pneumonia (Klebsiella pneumonia; [1]): 12.5 µg/mL | MIC M. catarrhalis (Moraxella catarrhalis; [1]): 25 µg/mL | MIC C. diversus (Citrobacter diversus; [1]): 12.5 µg/mL | MIC P. mirabilis (Proteus mirabilis; [1]): 50 µg/mL | MIC (E. coli DH5α): 25 µg/mL

PRT1484 (DTDECLGTPCQQRCKNSIGSYKCSCRTGFHLHGNRHSCV; listed as Homo sapiens)
MIC against S. marcescens (Serratia marcescens; Serratia marcescens, 10 h cultivation at 37° C.): 50 µg/mL | MIC against P. vulgaris (Proteus vulgaris; Proteus vulgaris, 10 h cultivation at 37° C.): 12.5 µg/mL | MIC against P. aeruginosa (Pseudomonas aeruginosa; Pseudomonas aeruginosa, 10 h cultivation at 37° C.): 50 µg/mL | MIC against E. cloacae (Enterobacter cloacae; Enterobacter cloacae, 10 h cultivation at 37° C.): 25 µg/mL | MIC against E. coli BL21 (E. coli BL21; [2]): 12.5 µg/mL | MIC against A. hydrophila (Aeromonas hydrophila; Aeromonas hydrophila, 10 h cultivation at 37° C.): 50 µg/mL | MIC against K. pneumonia (Klebsiella pneumonia; Klebsiella pneumonia, 10 h cultivation at 37° C.): 12.5 µg/mL | MIC against M. catarrhalis (Moraxella catarrhalis; Moraxella catarrhalis, 10 h cultivation at 37° C.): 12.5 µg/mL | MIC against C. diversus (Citrobacter diversus; Citrobacter diversus, 10 h cultivation at 37° C.): 25 µg/mL | MIC against P. mirabilis (Proteus mirabilis; Proteus mirabilis, 10 h cultivation at 37° C.): 50 µg/mL | MIC (E. coli DH5α): 50 µg/mL

PRT1030 (DVDECSENRCHPAATCYNTPGSFSCRCQPGYYGDGFQCI; listed as Homo sapiens)
MIC (Serratia marcescens; S. marcescens, 10 h cultivation at 37° C.): 50 µg/mL | MIC (Proteus vulgaris; P. vulgaris, 10 h cultivation at 37° C.): 12.5 µg/mL | MIC (Pseudomonas aeruginosa; P. aeruginosa, 10 h cultivation at 37° C.): 50 µg/mL | MIC (Enterobacter cloacae; E. cloacae, 10 h cultivation at 37° C.): 50 µg/mL | MIC (E. coli BL21; [2]): 12.5 µg/mL | MIC (Aeromonas hydrophila; A. hydrophila, 10 h cultivation at 37° C.): 25 µg/mL | MIC (Klebsiella pneumonia; K. pneumonia, 10 h cultivation at 37° C.): 12.5 µg/mL | MIC (Moraxella catarrhalis; M. catarrhalis, 10 h cultivation at 37° C.): 12.5 µg/mL | MIC (Citrobacter diversus; C. diversus, 10 h cultivation at 37° C.): 50 µg/mL | MIC (Proteus mirabilis; P. mirabilis, 10 h cultivation at 37° C.): 50 µg/mL | MIC (E. coli DH5α): 25 µg/mL

PRT690 (EAEECGILDGCTNGRCVRVPEGFTCRCFDGYRLDMTRMACV; listed as Homo sapiens)
MIC S. marcescens (Serratia marcescens; 96-well plate, 37° C., 10 h): 12.5 µg/mL | MIC P. vulgaris (Proteus vulgaris; 96-well plate, 37° C., 10 h): 50 µg/mL | MIC P. aeruginosa (Pseudomonas aeruginosa; 96-well plate, 37° C., 10 h): 25 µg/mL | MIC E. cloacae (Enterobacter cloacae; 96-well plate, 37° C., 10 h): 12.5 µg/mL | MIC E. coli BL21 (E. coli BL21; 96-well plate, 37° C., 10 h): 50 µg/mL | MIC A. hydrophila (Aeromonas hydrophila; 96-well plate, 37° C., 10 h): 25 µg/mL | MIC K. pneumonia (Klebsiella pneumonia; 96-well plate, 37° C., 10 h): 25 µg/mL | MIC M. catarrhalis (Moraxella catarrhalis; 96-well plate, 37° C., 10 h): 50 µg/mL | MIC C. diversus (Citrobacter diversus; 96-well plate, 37° C., 10 h): 25 µg/mL | MIC P. mirabilis (Proteus mirabilis; 96-well plate, 37° C., 10 h): 12.5 µg/mL | MIC (E. coli DH5α): 25 µg/mL

PRT448 (SFRCQCEPGFQLGPNNRSCVDVNE; listed as Homo sapiens)
MIC against S. marcescens (Serratia marcescens; 96-well plate, 37° C., 10 h): 12.5 µg/mL | MIC against P. vulgaris (Proteus vulgaris; 96-well plate, 37° C., 10 h): 50 µg/mL | MIC against P. aeruginosa (Pseudomonas aeruginosa; 96-well plate, 37° C., 10 h): 100 µg/mL | MIC against E. cloacae (Enterobacter cloacae; 96-well plate, 37° C., 10 h): 12.5 µg/mL | MIC against E. coli BL21 (E. coli BL21; 96-well plate, 37° C., 10 h): 50 µg/mL | MIC against A. hydrophila (Aeromonas hydrophila; 96-well plate, 37° C., 10 h): 50 µg/mL | MIC against K. pneumonia (Klebsiella pneumonia; 96-well plate, 37° C., 10 h): 50 µg/mL | MIC against M. catarrhalis (Moraxella catarrhalis; 96-well plate, 37° C., 10 h): 12.5 µg/mL | MIC against C. diversus (Citrobacter diversus; 96-well plate, 37° C., 10 h): 25 µg/mL | MIC against P. mirabilis (Proteus mirabilis; 96-well plate, 37° C., 10 h): 25 µg/mL | MIC (E. coli DH5α): 12.5 µg/mL

PRT1336 (DCNQCPGGFSNPCSGNGQCADSLGGNGTCICEEGFQGSQCQ; listed as Homo sapiens)
MIC against S. marcescens (Serratia marcescens; Serratia marcescens, 96-well plate, 37° C., 10 h): 50 µg/mL | MIC against P. vulgaris (Proteus vulgaris; Proteus vulgaris, 96-well plate, 37° C., 10 h): 12.5 µg/mL | MIC against P. aeruginosa (Pseudomonas aeruginosa; Pseudomonas aeruginosa, 96-well plate, 37° C., 10 h): 12.5 µg/mL | MIC against E. cloacae (Enterobacter cloacae; Enterobacter cloacae, 96-well plate, 37° C., 10 h): 25 µg/mL | MIC against E. coli BL21 (E. coli BL21; E. coli BL21, 96-well plate, 37° C., 10 h): 50 µg/mL | MIC against A. hydrophila (Aeromonas hydrophila; Aeromonas hydrophila, 96-well plate, 37° C., 10 h): 12.5 µg/mL | MIC against K. pneumonia (Klebsiella pneumonia; Klebsiella pneumonia, 96-well plate, 37° C., 10 h): 50 µg/mL | MIC against M. catarrhalis (Moraxella catarrhalis; Moraxella catarrhalis, 96-well plate, 37° C., 10 h): 12.5 µg/mL | MIC against C. diversus (Citrobacter diversus; Citrobacter diversus, 96-well plate, 37° C., 10 h): 50 µg/mL | MIC against P. mirabilis (Proteus mirabilis; Proteus mirabilis, 96-well plate, 37° C., 10 h): 50 µg/mL | MIC (E. coli DH5α): 12.5 µg/mL

— patent US9833497B2, “Human originated EGF domain proteins and use of the same” (CHENGDU SOURCEBIO LIMITED-LIABILITY COMPANY, priority 2013, dated 2017)
